# Several values for one entry are separate records, joined by “and”; a condition that tells them apart may be missing. Identical values can stand only once.
# Assays:
# [1] = system: postmenopausal osteoporotic outpatients; assay: 104-week placebo-controlled study of oral 1α-(OH)D2 in postmenopausal osteoporotic outpatients (Example 1); type: in vivo, human
# Source text: 1α-(OH)D2 was used to treat osteoporosis was confirmed in a study involving 60 postmenopausal osteoporotic outpatients. […] Exclusion criteria encompassed significant medical disorders and recent use of medications known to affect bone or calcium metabolism. On admission to the study, each subject was assigned at random to one of two treatment groups; one group received up to a 104-week course of therapy with 1α-(OH)D2; the other received only placebo therapy. All subjects received instruction on selecting a daily diet containing 700-900 mg of calcium and were advised to adhere to this diet over the course of the study. Compliance to the diet was verified at regular intervals by 24-hour food records and by interviews with each subject. During the treatment period, subjects from one group orally self-administered 1α-(OH)D2 at an initial dosage of 1.0 μg/day for one week, and increased the dosage to 2.0, 3.0, 4.0 μg/day in each of the following weeks, to a maximum dosage of 5.0 μg/day. The dosage for any given subject was increased in this way until the rate of urinary calcium excretion was elevated to approximately 275-300 mg/24 hours, at which point the subject held the dosage constant at the highest level attained. Subjects from the second group self-administered a matching placebo medication every day, titrating the apparent dosage upwards in the same manner as subjects being treated with 1α-(OH)D2. Spinal and femoral neck BMD were measured in all subjects by DEXA at the beginning of the study, and at six-month intervals thereafter. Intestinal calcium absorption was estimated in all subjects by a single isotope technique at the beginning of the study, and at 12-month intervals. Serum levels of vitamin D metabolites were determined by radioreceptor binding assays at baseline and at six-month intervals. Serum osteocalcin, serum PTH and urine hydroxyproline also were determined at baseline and at six-month intervals. Other blood and urine chemistries were monitored at regular intervals during the treatment period. These chemistries included serum calcium, serum ionized calcium, urine calcium, blood urea nitrogen, serum creatinine and creatinine clearance. Kidney-ureter-bladder (KUB) x-rays were obtained at baseline and at 12-month intervals thereafter.
# [2] = system: subjects with chronic kidney disease with elevated blood PTH; assay: 24-week double-blinded placebo-controlled study of oral doxercalciferol in secondary hyperparathyroidism with mild to moderate chronic kidney disease (Example 2); type: in vivo, human; conditions: for Mean (±SE) plasma iPTH: baseline 219.1±22.3 pg/mL
# Source text: 1α-(OH)D2 (doxercalciferol) was used as a treatment for hyperparathyroidism associated with chronic kidney disease was confirmed in a study involving 55 adults, ages 18-85 years, with mild to moderate chronic kidney disease. The subjects had plasma intact parathyroid hormone (iPTH) levels above 85 pg/mL and completed an eight-week baseline period and then 24 weeks of therapy with either orally administered doxercalciferol or placebo. The initial dose of test drug was 2 capsules daily (totaling 1.0 μg for subjects randomized to doxercalciferol treatment), with increases in steps of one capsule per day permitted after four weeks. The maximum dosage was limited to 10 capsules per day (5.0 μg/day of doxercalciferol). Subjects were monitored at regular intervals for plasma iPTH, serum calcium and phosphorus, 24-hour and fasting urinary calcium, bone-specific serum markers, plasma total 1α,25-(OH)2D, and routine blood chemistries and hematologies. Glomerular filtration rate (GFR) was measured prior to beginning the treatment and at study termination. No physical or biochemical differences were detectable between the two treatment groups prior to starting treatment. […] On enrollment, each subject was assigned, at random, in double-blinded fashion, to one of two treatment groups. Both treatment groups completed an 8-week Baseline Period (Weeks −8 to 0) and then underwent therapy with either orally administered doxercalciferol or placebo for a 24-week Treatment Period (Weeks 1 to 24). Irrespective of treatment group assignment, each subject discontinued any 1α,25-dihydroxivitamin D3 (1α,25(OH)2D3) therapy for the duration of the study. Throughout the Baseline Period and the subsequent Treatment Period, subjects were monitored at regular intervals for plasma iPTH, serum calcium, serum phosphorus, and 24-hour and fasting urinary calcium, phosphorus and creatinine. Routine blood chemistries and hematologies, bone-specific serum markers, and plasma total 1α,25(OH)2D were also monitored at selected intervals. Glomerular filtration rate (GFR) was measured prior to beginning treatment and at termination. Subjects qualified for inclusion in the Baseline Period if they were aged 18 to 85 years, had mild to moderate CR1 with serum creatinine between 1.8 to 5.0 mgldL (for men) or 1.6 to 4.0 mg/dL (for women), and had elevated plasma iPTH values (>85 pg/mL). Subjects receiving ongoing treatment with estrogen were required to maintain the same estrogen dosing regimen throughout the study. Subjects who began dialysis treatment or underwent renal transplantation were required to prematurely terminate participation. […] Patients were also excluded who had hypercalcemia, hyperthyroidism, sarcoidosis, malignancy requiring chemotherapy, hormonal therapy and/or radiation treatment, chronic gastrointestinal disease (i.e., malabsorption, surgery affecting absorption, and chronic ulcerative colitis), hepatic impairment, or any other condition which may have put the patient at undue risk. […] The two studies were conducted under double-blind conditions in each geographical region. Assignments of subjects to the two treatment groups were made randomly, by geographical region, in order of enrollment. The randomization was accomplished in subgroups of size 10, 5 subjects assigned to each of the two treatment groups. The randomization was performed by an independent statistician using the Statistical Analysis System (SAS). 1α-hydroxyvitamin D2 (available as doxercalciferol from Bone Care International) was formulated for oral administration as soft elastic gelatin capsules in units of 0.5 mcg/capsule. […] The initial dose of test drug (doxercalciferol or placebo) was 2 capsules (totaling a 1.0 μg dose for subjects receiving doxercalciferol) every day before breakfast. This dosage was increased as necessary at monthly intervals, to suppress plasma iPTH levels by at least 30% from baseline. […]
# [3] = system: subjects with low serum calcium; assay: 24-week oral doxercalciferol therapy in subjects with low serum calcium (Example 3); type: in vivo, human
# Description: 1α-(OH)D2 (doxercalciferol) is used as a treatment for subjects with low serum calcium in a study involving 50 adults, ages 18-85 years. The subjects have serum calcium levels below 8.6 mg/dL and complete an eight-week baseline period and then 24 weeks of therapy with orally administered doxercalciferol. The initial dose of 1α-(OH)D2 is 2 capsules daily (totaling 1.0 μg), with increases in steps of one capsule per day permitted after four weeks. The maximum dosage is limited to 10 capsules per day (5.0 μg/day of doxercalciferol). Subjects are monitored at regular intervals for plasma iPTH, serum calcium and phosphorus, 24-hour and fasting urinary calcium, bone-specific serum markers, plasma total 1α,25-(OH)2D, and routine blood chemistries and hematologies.
# [4] = system: subjects with low serum 1,25-dihydroxyvitamin D; assay: 24-week oral doxercalciferol therapy in subjects with low serum 1,25-dihydroxyvitamin D (Example 4); type: in vivo, human
# Description: 1α-(OH)D2 (doxercalciferol) is used as a treatment for subjects with low serum 1,25-dihydroxyvitamin D in a study involving 50 adults, ages 18-85 years. The subjects have serum 1,25-dihydroxyvitamin D levels below […] and complete an eight-week baseline period and then 24 weeks of therapy with orally administered doxercalciferol. The initial dose of 1α-(OH)D2 is 2 capsules daily (totaling 1.0 μg), with increases in steps of one capsule per day permitted after four weeks. The maximum dosage is limited to 10 capsules per day (5.0 μg/day of doxercalciferol). Subjects are monitored at regular intervals for plasma iPTH, serum calcium and phosphorus, 24-hour and fasting urinary calcium, bone-specific serum markers, plasma total 1α,25-(OH)2D, and routine blood chemistries and hematologies.
# PTH levels = conditions: Malluche et al., Nephrol. Dial. Transplant., 2004; cited from earlier work
# [5] = Treatment Period, active treatment
# [6] = after the 24 week treatment period
structure (smiles),measurement,setting,value
"C=C1/C(=C\C=C2/CCC[C@]3(C)[C@@H]([C@H](C)/C=C/[C@H](C)C(C)C)CC[C@@H]23)C[C@@H](O)C[C@@H]1O [1α-(OH)D2, 1α-hydroxyvitamin D2]",Increase in intestinal absorption of orally administered Ca relative to placebo control,"[1]; after 52 weeks, P<0.001",40%
same,Increase in intestinal absorption of orally administered Ca relative to placebo control,"[1]; after 104 weeks, P<0.5",29%
same,Decrease in serum levels of PTH relative to placebo therapy,[1]; at 1-4 weeks (so in the source),25%
same,"Increase in mean serum total 1α,25-(OH)2D3 relative to placebo therapy","[1]; at 24 months, P<0.01",49%
same,Decrease in serum levels of PTH relative to placebo therapy,[1]; at 52 weeks,17%
same,"Increase in mean serum total 1α,25-(OH)2D3 relative to placebo therapy","[1]; at six months, P<0.05",21%
same,Mean urine calcium during initial titration period,[1]; dosage titrated 1.0 to 5.0 μg/day,increased during the initial titration period in a dose-response fashion
same,"Serum 1α,25-(OH)2D2",[1]; during treatment,dramatic rise
same,"Mild hypercalcemia (10.2-10.4 mg/dL), subjects affected",[1]; first year,four
same,"Moderate hypercalcemia (10.4-10.8 mg/dL), subjects affected","[1]; over the course of the study, prescribed dosages 5.0 μg/day",two
same,"Hypercalciuria observed occasionally, subjects affected",[1]; over the two-year study,17 subjects
same,"Marked hypercalcemia (>10.8 mg/dL), subjects affected","[1]; prescribed dosage 5.0 μg/day, in association with an intercurrent illness",one
same,"Mild hypercalcemia (10.2-10.4 mg/dL), subjects affected",[1]; second year,two
same,Bone mineral density (BMD) in the L2-L4 vertebrae,"[1]; two-year study, decreased with placebo, difference P<0.05 after 24 months",progressively increased
same,Renal function and rates of adverse events vs placebo,[2]; 24 weeks,No differences between treatment groups
same,Subjects achieving plasma iPTH suppression of ≧30% from baseline (percentage),"[2]; 27 subjects in the active group, mean of Weeks 20 and 24, placebo 7.1%",74%
same,Episodes of hypercalciuria (24-hour urine calcium >200 mg or fasting urine Ca/Cr ratio above 0.25),[2]; Treatment Period,No episodes
same,Episodes of hyperphosphatemia (serum phosphorus >5.0 mg/dL),[2]; [5],15 episodes
same,Subjects with hyperphosphatemia (serum phosphorus >5.0 mg/dL),[2]; [5],10 subjects
same,"Mean serum osteocalcin, upward trend from baseline",[2]; Week 4,~10%
same,Mean (±SE) plasma iPTH,[2]; Week 4,165 ± 15 pg/mL
same,Mean reduction of plasma iPTH from baseline,[2]; Week 8,26.3%
same,"Mean serum osteocalcin, decline from baseline",[2]; Week 24,about 20%
same,Mean (±SE) serum phosphorus,"[2]; Week 24, baseline 4.02±0.15 mg/dL",4.27 ± 0.13 mg/dL
same,Mean (±SE) serum calcium,"[2]; Week 24, baseline 8.74±0.12 mg/dL",9.14 ± 0.11 mg/dL
same,Mean (±SE) plasma iPTH,"[2]; Week 24, p<0.001 vs. baseline",118 ± 17 pg/mL
same,Mean reduction (suppression) of plasma iPTH from baseline,"[2]; Week 24, p<0.001",45.6%
same,Mean alkaline phosphatase,"[2]; Weeks 16 and 24, p<0.05",reduced significantly from baseline
same,"Mean serum total 1,25-dihydroxyvitamin D levels","[2]; all treatment weeks, did not differ significantly between groups",increased significantly from baseline
same,Mean reduction in serum bone-specific alkaline phosphatase (BSAP) from baseline,[2]; by Week 16,19.7±3.7%
same,Mean reduction in serum bone-specific alkaline phosphatase (BSAP) from baseline,[2]; by Week 24,27.9±4.6%
same,"Rise in mean serum 1,25-dihydroxyvitamin D from baseline levels","[2]; during treatment, no change in placebo group",~50%
same,iPTH increase in an individual subject,"[2]; end of treatment, one subject",3.9%
same,iPTH reduction in individual subjects not reaching ≧30% suppression,"[2]; end of treatment, single subjects, listed as doxercalciferol",24.0% and 24.2% and 19.6%
same,Duration of hypercalcemia episode,[2]; episode with onset in Week 4,5 weeks
same,Maximum serum calcium recorded during hypercalcemia episode,"[2]; episode with onset in Week 4, one subject",10.9 mg/dL
same,Duration of hypercalcemia episode,[2]; episode with onset in Week 16,8 weeks
same,Maximum serum calcium recorded during hypercalcemia episode,"[2]; episode with onset in Week 16, one subject",11.0 mg/dL
same,Episodes of hypercalcemia (corrected serum calcium >10.7 mg/dL),"[2]; in one subject, onsets Week 4 and Week 16",Two
same,Subjects achieving plasma iPTH suppression of ≧30% from baseline (number),"[2]; of 27 subjects in the active group, mean of Weeks 20 and 24",20 subjects
same,Serum calcium in the excepted subject during treatment,[2]; one subject with pre-treatment serum calcium as high as 10.7 mg/dL,11.0 mg/dL
same,iPTH increase in a subject at discontinuation,"[2]; one subject, discontinued in Week 5",22.8%
same,Plasma iPTH suppression from baseline in a subject at discontinuation,"[2]; one subject, discontinued in Week 8",27.9%
same,Plasma iPTH suppression in a subject at discontinuation,"[2]; one subject, discontinued in Week 17",44.4%
same,Serum C- and N-telopeptides and bone-specific alkaline phosphate,"[2]; relative to baseline and placebo treatment, p<0.01",decreased
same,Average serum phosphorous levels,[3]; [6],2.4 to 5 mg/dL
same,"Serum bone-specific markers alkaline phosphatase, N- and C-telopeptides, and osteocalcin",[3]; [6],average normal levels
same,"Serum 1,25-dihydroxyvitamin D levels between doses",[3]; between doses of 1α-(OH)D2,within the patients normal historical physiological range
same,Average serum phosphorous levels,[4]; [6],2.4 to 5 mg/dL
same,"Serum bone-specific markers alkaline phosphatase, N- and C-telopeptides, and osteocalcin",[4]; [6],average normal levels
same,"Serum 1,25-dihydroxyvitamin D levels between doses",[4]; between doses of 1α-(OH)D2,within the patients normal historical physiological range
"C=C1/C(=C\C=C2/CCC[C@]3(C)[C@@H]([C@H](C)CCCC(C)(C)O)CC[C@@H]23)C[C@@H](O)C[C@@H]1O [calcitriol, 1,25-dihydroxyvitamin D3]",Effect of treatment on PTH levels,PTH levels,over suppression of PTH levels

# — patent publication US20050239756A1, “Methods of treating various vitamin D metabolism conditions with 1alpha-hydroxyvitamin D2” (Bone Care International, Inc., priority 2004, published 2005)
